Assay results from US9150555B2, “Amide derivative and use thereof” (Mitsubishi Tanabe Pharma Corporation, priority 2010, dated 2015).

Assays:
hERG = hERG (Homo sapiens, UniProt Q12809); assay: Effects on hERG current (whole-cell clamping); settings: human, HEK 293 cells that express hERG, pH 7.4, hERG inhibition rate (%) (1 μM), 1 μM; tail peak current; hERG-expressed HEK 293 cells
Procedure: Dimethylsulfoxide was used as a vehicle and hERG-expressed HEK 293 cells (Cytomyx) were used as test cells. Test cells were once cultured and subdivided and were stored under frozen condition in liquid nitrogen. In the study, thawed and subcultured cells having less than 30 of the passage number were used. Test cells were cultured in a carbon dioxide incubator BNP-110M (Tabai Espec Corp.) at 37±1° C., and 5.0±0.5% of carbon dioxide concentration. The component of culture medium was MEM (Minimum Essential Medium) supplemented with 10 vol % fetal bovine serum (non-activated), 1 mmol/L sodium pyruvate, 0.1 mmol/L non-essential amino acid, 100 U/mL penicillin with 100 μg/mL streptomycin. To select gene-expressing cells, 400 μg/mL G418 Sulphate (Invitrogen) was added to the culture medium. In the dishes for the measurement, the medium which not contain G418 Sulphate (Invitrogen) was used.
As to seeding of cells for measurement, subcultured cells which became confluent were treated with 0.25% trypsin-solution containing 1 mmol/L EDTA (Invitrogen) to remove from the plate, and seeded on sterilized collagen-coated cover glass (Iwaki, AGC Techno Glass Co., LTD). The medium was exchanged appropriately, including the day of measurement.
A perfusion method was applied to the experiment. Test cells were perfused (perfusion speed: approximately 4 mL/min) with an external solution containing specified concentrations of test compounds (component of external solution: 137 mmol/L of sodium chloride, 4 mmol/L of potassium chloride, 10 mmol/L of HEPES, 1.8 mmol/L of calcium chloride, 1 mmol/L of magnesium chloride and 10 mmol/L of glucose; adjusted to pH 7.4±0.1 with sodium hydroxide aqueous solution). […] When effects were observed, the perfusion was continued until the maximum response was observed. […] The data were obtained from one experiment or more and the cells which were incubated in a carbon dioxide incubator after seeding and attached to cover slips were used for the measurement.
A whole-cell clamping method was applied to the measurement. Test cells were perfused (perfusion speed: approximately 4 mL/min) with an external solution (component of external solution: 137 mmol/L of sodium chloride, 4 mmol/L of potassium chloride, 10 mmol/L of HEPES, 1.8 mmol/L of calcium chloride, 1 mmol/L of magnesium chloride and 10 mmol/L of glucose; adjusted to pH 7.4±0.1 with sodium hydroxide aqueous solution). A glass electrode with a resistance of 2 to 6 MΩ, filled with an internal solution (component: 130 mmol/L of potassium chloride, 1 mmol/L of magnesium chloride, 5 mmol/L of EGTA, 10 mmol/L of HEPES and 5 mmol/L of ATP adjusted to pH 7.2±0.1 with sodium hydroxide aqueous solution) was used. After rupturing cell membrane with glass electrode, the cell membrane voltage was held at −80 mV via a patch clamp software (pCLAMP9 [Axon CNS], Molecular Devices) using patch clamp amplifier (EPC8, HEKA). […] Test cells and the cell-attached cover glass were changed every treatment. Temperature of the fluid in a perfusion fluid tank was 24±2° C.
The obtained current was recorded on a computer via a patch clamp amplifier using patch clamp software. An evaluation item was a tail peak current.
A tail peak current was analyzed using analyzing software (Clampfit 9 [Axon CNS], MolecularDevices). Each 2 pulses of before and after perfusion of test compound for each concentration was analyzed, and a peak values of the tail current on the pulses were determined. The inhibition ratio was determined according to the following equation:

[1] = tested on: IL-17 production of mouse spleen cells stimulated by rm-IL-23; assay: Production of IL-17 induced when mouse spleen cells were stimulated by recombinant mouse interleukin-23 (rm-IL-23); format: cell-based; settings: Mus musculus, 72 h, inhibition of IL-17 production, DBA/1J mouse spleen cells, rm-IL-23 1 nmol/L, ELISA
Summary of the method: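 Spleen cells from 6-7 week-old male DBA/1J mice, 2×10^5 cells/well in 10% FCS RPMI1640, cultured 72 h at 37° C with compound (1 to 1,000 nmol/L) plus 1 nmol/L rm-IL-23. IL-17 in supernatant by ELISA; viability by WST-8 absorbance at 450 nm; IC50 by linear regression of inhibition rate.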

[2] = tested on: Type II collagen-induced arthritis in DBA/1J mice; assay: Type II collagen-induced arthritis in DBA/1J mice; format: in vivo, mouse; settings: Mus musculus, 504 h; dose showing significant inhibitory effect on arthritis; oral, once a day for three weeks from booster immunization
Procedure: Effect on Type II Collagen-Induced Arthritis in DBA/1J Mice
An emulsion was prepared by mixing bovine II collagen (100-200 μg purchased from collagen Gijyutsu Kenshuukai) and Freund's complete adjuvant (Sigma Aldrich) containing killed Mycobacterium tuberculosis H37Ra. Arthritis was induced by immunization through subcutaneous administration of the emulsion to the tail of 6-7 week-old male DBA/1J mouse (Charles River Japan, Inc.), followed by booster immunization three weeks later by administration of an emulsion prepared by mixing bovine II collagen with Freund's incomplete adjuvant (Sigma-Aldrich). Test compound was suspended or dissolved in 0.5% carboxymethylcellulose (Sigma-Aldrich) and repeatedly administered orally once a day at a dose of 0.1 to 10 mg/kg body weight using an oralsonde for three weeks from the day of booster immunization. In this model, the symptom of arthritis of the limbs was each evaluated according to the following evaluation criteria of 0 to 4 scores: 0, No change; 1, edema in only one joint; 2, edema in two or more joints, or light edema of the entire limb; 3, severe edema of the entire limb; 4, severe edema of the entire limb and ankylosis and immovability of joint. The score of arthritis of each mouse was expressed as the total of the scores of the limbs (Maximum: 16 points). On the next day of the last administration, soft X-ray photograph of the limbs was taken with soft X-ray equipment (Omic), and the level of joint destruction was evaluated by observation under a microscope. In each finger of the limbs the score of joint destruction was judged as 0 when no joint destruction was found, and as 1 when one or more destruction was found, and the score of joint destruction of a mouse was expressed as the total of scores for each finger of limb (Maximum: 20). The arthritis score and joint destruction score were expressed as the average value and standard error for each group (n=6-8). Only a vehicle was administered in a control group, and statistical analysis was performed by Dunnett's multiple comparison test, in which the case was judged as significant when the p value was less than 0.05.

hERG, sequence (Q12809 whole entry): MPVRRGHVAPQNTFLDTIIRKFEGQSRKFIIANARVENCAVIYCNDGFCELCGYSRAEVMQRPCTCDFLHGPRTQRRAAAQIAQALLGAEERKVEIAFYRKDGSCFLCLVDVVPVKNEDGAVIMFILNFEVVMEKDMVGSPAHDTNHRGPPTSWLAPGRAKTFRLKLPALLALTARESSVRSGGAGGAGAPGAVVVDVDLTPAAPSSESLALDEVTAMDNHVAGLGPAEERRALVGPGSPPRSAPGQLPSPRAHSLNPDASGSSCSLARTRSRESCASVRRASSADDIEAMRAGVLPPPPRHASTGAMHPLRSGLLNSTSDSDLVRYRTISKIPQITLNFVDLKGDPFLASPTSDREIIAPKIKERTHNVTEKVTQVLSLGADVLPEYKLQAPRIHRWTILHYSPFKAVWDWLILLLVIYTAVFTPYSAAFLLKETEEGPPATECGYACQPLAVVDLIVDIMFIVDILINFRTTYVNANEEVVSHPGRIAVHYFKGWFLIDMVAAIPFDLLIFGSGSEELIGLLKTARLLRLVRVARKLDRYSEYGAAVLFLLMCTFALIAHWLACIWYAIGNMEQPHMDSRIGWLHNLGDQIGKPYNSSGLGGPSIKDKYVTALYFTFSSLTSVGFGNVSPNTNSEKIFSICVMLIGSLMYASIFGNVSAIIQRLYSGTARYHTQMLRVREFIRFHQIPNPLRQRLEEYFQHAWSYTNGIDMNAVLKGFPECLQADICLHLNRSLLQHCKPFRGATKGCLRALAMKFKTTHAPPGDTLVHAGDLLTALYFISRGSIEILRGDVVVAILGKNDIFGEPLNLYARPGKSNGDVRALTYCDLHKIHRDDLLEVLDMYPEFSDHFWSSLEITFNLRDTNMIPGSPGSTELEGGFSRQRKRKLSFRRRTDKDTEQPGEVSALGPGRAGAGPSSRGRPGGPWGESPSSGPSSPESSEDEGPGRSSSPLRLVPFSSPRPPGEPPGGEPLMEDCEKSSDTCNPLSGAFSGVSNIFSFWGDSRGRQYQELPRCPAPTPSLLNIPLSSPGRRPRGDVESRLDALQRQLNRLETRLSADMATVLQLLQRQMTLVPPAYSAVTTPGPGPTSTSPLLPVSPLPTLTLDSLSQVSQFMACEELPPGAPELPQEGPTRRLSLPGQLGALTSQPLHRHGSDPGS

Row | Structure (SMILES) | inhibition at 1 µM (hERG) | IC50 [1] | minimal effective dose [2]
1 | CS(=O)(=O)O.Cc1cc(NC(=O)c2cnn(-c3ccc(C(F)(F)F)cn3)c2C)cnc1C1=CCC(N2CCOCC2)CC1 (centres unmarked) [Example D20, 5-Methyl-N-{5-methyl-6-[4-(morpholin-4-yl)cyclohex-1-en-1-yl]pyridin-3-yl}-1-[5-(trifluoromethyl)pyridin-2-yl]-1H-pyrazole-4-carboxamide mesylate] | 32.2% | 56.4 nM | 1 mg/kg
2 | Cc1c(C(=O)Nc2ccc([C@]3(C#N)CC[C@@H](N4CCOCC4)CC3)nc2)cnn1-c1ccc(C(F)(F)F)cc1 [Example D146] | 47.2% | 46.6 nM | 0.1 mg/kg
3 | Cc1c(C(=O)Nc2ccc(C3CCC(=O)CC3)nc2)cnn1-c1ccc(Cl)cc1 [Example E13] | 10.3% | 109 nM | 1 mg/kg
4 | Cc1cc(NC(=O)c2cnn(-c3ccc(C(F)(F)F)cc3)c2C)cnc1C1=CCC(N2CCOCC2)CC1 (centres unmarked) [Example E24] |  |  | 1 mg/kg
5 | Cc1c(C(=O)Nc2ccc([C@]3(C#N)CC[C@@H](O)CC3)nc2)cnn1-c1ccc(Cl)cc1 [Example G1, 1-(4-Chlorophenyl)-N-[6-(r-1-cyano-c-4-hydroxycyclohexyl)pyridin-3-yl]-5-methyl-1H-pyrazole-4-carboxamide] | 25.8% | 118 nM | 3 mg/kg
6 | Cc1c(C(=O)Nc2ccc([C@]3(C#N)CC[C@@H](O)CC3)nc2)cnn1-c1ccc(F)cc1 [Example G2, N-[6-(r-1-cyano-c-4-hydroxycyclohexyl)pyridin-3-yl]-1-(4-fluorophenyl)-5-methyl-1H-pyrazole-4-carboxamide] | 15.2% | 194 nM | 1 mg/kg
7 | Cc1ccc(-n2ncc(C(=O)Nc3ccc([C@]4(C#N)CC[C@@H](O)CC4)nc3)c2C)cc1 [Example G3, N-[6-(r-1-Cyano-c-4-hydroxycyclohexyl)pyridin-3-yl]-5-methyl-1-(4-methylphenyl)-1H-pyrazole-4-carboxamide] | 4.4% | 91.8 nM | 1 mg/kg
8 | Cc1c(C(=O)Nc2ccc([C@]3(C#N)CC[C@H](O)CC3)nc2)cnn1-c1ccc(C(F)(F)F)cc1 [Example K2] |  |  | 10 mg/kg
9 | Cc1cc(NC(=O)c2cnn(-c3ccc(C(F)(F)F)cn3)c2C)cnc1C1=CCC(N(C)C(=O)C(C)(C)C)CC1 (centres unmarked) [Example K28, N-(6-{4-[N-(2,2-Dimethylpropion-1-yl)-N-methylamino]cyclohex-1-en-1-yl}-5-methylpyridin-3-yl)-5-methyl-1-[5-(trifluoromethyl)pyridin-2-yl]-1H-pyrazole-4-carboxamide] | 5.1% | 8.11 nM | 
10 | Cc1cc(NC(=O)c2cnn(-c3ccc(C(F)(F)F)cn3)c2C)cnc1C1=CCC(N(C)CCC(C)(C)C)CC1 (centres unmarked) [Example K30, N-(6-[4-[N-(3,3-Dimethylbutyl)-N-methylamino]cyclohex-1-en-1-yl]-5-methylpyridin-3-yl)-5-methyl-1-[5-(trifluoromethyl)pyridin-2-yl]-1H-pyrazole-4-carboxamide] | 79.6% | 368 nM | 
11 | Cc1cc(NC(=O)c2cnn(-c3ccc(C(F)(F)F)cn3)c2C)cnc1C1=CCC(C(C)(C)O)CC1 (centres unmarked) [Example K31, N-{6-[4-(1-Hydroxy-1-methylethyl)cyclohex-1-en-1-yl]-5-methylpyridin-3-yl}-5-methyl-1-[5-(trifluoromethyl)pyridin-2-yl]-1H-pyrazole-4-carboxamide] | 15.8% | 4.27 nM | 
12 | Cc1c(C(=O)Nc2ccc(C3=CCC(C(C)(C)O)CC3)nc2)cnn1-c1ccc(C(F)(F)F)cn1 (centres unmarked) [Example K32, N-{6-[4-(1-Hydroxyl-methylethyl)cyclohex-1-en-1-yl]pyridin-3-yl}-5-methyl-1-[5-(trifluoromethyl)pyridin-2-yl]-1H-pyrazole-4-carboxamide] | 11.3% | 6.32 nM | 
13 | CC[C@]1(O)CC[C@](C#N)(c2ccc(NC(=O)c3cnn(-c4ccc(F)cc4)c3C)cn2)CC1 [Example K33, N-[6-(r-1-Cyano-4-ethyl-c-4-hydroxycyclohexan-1-yl)pyridin-3-yl]-1-(4-fluorophenyl)-5-methyl-1H-pyrazole-4-carboxamide] | 8% | 206 nM | 
14 | CC[C@]1(O)CC[C@@](C#N)(c2ccc(NC(=O)c3cnn(-c4ccc(C)cc4)c3C)cn2)CC1 [Example K34, N-[6-(r-1-Cyano-4-ethyl-t-4-hydroxycyclohexan-1-yl)pyridin-3-yl]-5-methyl-1-(4-methylphenyl)-1H-pyrazole-4-carboxamide] | 0.5% | 154 nM | 
15 | CC[C@]1(O)CC[C@](C#N)(c2ccc(NC(=O)c3cnn(-c4ccc(C)cc4)c3C)cn2)CC1 [Example K36, N-[6-(r-1-Cyano-4-ethyl-c-4-hydroxycyclohexan-1-yl)pyridin-3-yl]-5-methyl-1-(4-methylphenyl)-1H-pyrazole-4-carboxamide] | 8.1% | 124 nM | 
16 | Cc1c(C(=O)Nc2cnc(C3=CCC(N4CCOCC4)CC3)c(C#N)c2)cnn1-c1ccc(C(F)(F)F)cn1 (centres unmarked) [Example K38, N-{5-Cyano-6-[4-(morpholin-4-yl)cyclohex-1-en-1-yl]pyridin-3-yl}-5-methyl-1-[5-(trifluoromethyl)pyridin-2-yl]-1H-pyrazole-4-carboxamide] | 44.1% | 58.1 nM | 
17 | Cc1cc(NC(=O)c2cnn(-c3ccc(C(F)(F)F)cn3)c2C)cnc1C1=CCN(C(=O)C(C)(C)C)CC1 [Example K41, N-{6-[1-(2,2-Dimethylpropanoyl)-1,2,3,6-tetrahydropyridin-4-yl]-5-methylpyridin-3-yl}-5-methyl-1-[5-(trifluoromethyl)pyridin-2-yl]-1H-pyrazole-4-carboxamide] | 25.6% | 161 nM | 
18 | Cc1cc(NC(=O)c2cnn(-c3ccc(C(F)(F)F)cn3)c2C)cnc1C1=CCN(S(=O)(=O)C(C)C)CC1 [Example K45, 5-Methyl-N-{5-methyl-6-[1-(propane-2-sulfonyl)-1,2,3,6-tetrahydropyridin-4-yl]pyridin-3-yl}-1-[5-(trifluoromethyl)pyridin-2-yl]-1H-pyrazole-4-carboxamide] | 21.1% | 46.2 nM | 
19 | Cc1c(C(=O)Nc2ccc(C3(C#N)CCN(S(=O)(=O)C(C)C)CC3)nc2)cnn1-c1ccc(C(F)(F)F)cn1 [Example K51, N-{6-[4-Cyano-1-(propane-2-sulfonyl)piperidin-4-yl]pyridin-3-yl}-5-methyl-1-[5-(trifluoromethyl)pyridin-2-yl]-1H-pyrazole-4-carboxamide] | 43.7% | 37.3 nM | 
20 | Cc1cc(NC(=O)c2cnn(-c3ccc(C(F)(F)F)cn3)c2C)cnc1C1=CCN(C(=O)N2CCCC2)CC1 [Example K52, 5-Methyl-N-{5-methyl-1-(pyrrolidin-1-ylcarbonyl)-6-[1,2,3,6-tetrahydropyridin-4-yl]pyridin-3-yl}-1-[5-(trifluoromethyl)pyridin-2-yl]-1H-pyrazole-4-carboxamide] | 31.5% | 160 nM | 
21 | Cc1cc(NC(=O)c2cnn(-c3ccc(C(F)(F)F)cn3)c2C)cnc1C1CCN(S(=O)(=O)C(C)C)CC1 [Example K55, 5-Methyl-N-{5-methyl-6-[1-(propane-2-sulfonyl)piperidin-4-yl]pyridin-3-yl}-1-[5-(trifluoromethyl)pyridin-2-yl]-1H-pyrazole-4-carboxamide] | 29.5% | 46.4 nM | 
22 | Cc1cc(NC(=O)c2cnn(-c3ccc(C(F)(F)F)cn3)c2C)cnc1C1CCN(C(=O)C(F)(F)F)CC1 [Example K60, 5-Methyl-N-{5-methyl-6-[1-(trifluoroacetyl)piperidin-4-yl]pyridin-3-yl}-1-[5-(trifluoromethyl)pyridin-2-yl]-1H-pyrazole-4-carboxamide] | 22.8% | 47.2 nM | 
23 | Cc1c(C(=O)Nc2cnc(C3=CCC(N(C)C(=O)C(C)(C)C)CC3)cn2)cnn1-c1ccc(C(F)(F)F)cn1 (centres unmarked) [Example K64, N-(5-{4-[N-(2,2-Dimethylpropion-1-yl)-N-methylamino]cyclohex-1-en-1-yl}pyrazin-2-yl)-5-methyl-1-[5-(trifluoromethyl)pyridin-2-yl]-1H-pyrazole-4-carboxamide] | 2.3% | 157 nM | 
